Experimental findings from patent publication US12448371B2, “Inhibitor compounds” (Cincera Therapeutics Pty Ltd, priority 2019, dated 2025) are described below.

Structures can show the parent of a compound that is named as a salt. Where two headings read alike, the source gives them in different places.

In data set [1] the target is T1, Des1 (h) (Homo sapiens, UniProt O15121).
T1 construct: endogenous in cells; host or cells: parental Jurkat cells
T1 sequence (O15121 1-323): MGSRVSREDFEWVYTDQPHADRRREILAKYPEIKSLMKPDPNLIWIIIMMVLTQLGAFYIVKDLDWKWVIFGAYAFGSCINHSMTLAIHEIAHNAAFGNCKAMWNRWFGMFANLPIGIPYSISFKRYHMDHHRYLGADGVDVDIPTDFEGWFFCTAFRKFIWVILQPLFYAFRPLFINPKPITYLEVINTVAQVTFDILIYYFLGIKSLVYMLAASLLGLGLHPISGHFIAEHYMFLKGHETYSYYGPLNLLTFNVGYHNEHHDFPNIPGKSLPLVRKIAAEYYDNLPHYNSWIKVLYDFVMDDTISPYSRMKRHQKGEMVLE
Briefly: Measurement of Dihydroceramide Desaturase-1 (Des-1) activity in intact Jurkat cells labeled with DhCer-C6-NBD (HPLC). Type of data set: cell-based. The method, boiled down:
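Intact parental Jurkat cells in 0.5% serum medium were labelled with DhCer-C6-NBD; cells harvested at 500×g and ceramides extracted. NBD-labelled substrate and product resolved by C18 reverse-phase HPLC and quantified by fluorescence (ex 465/em 530 nm) as a measure of Des-1 activity.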

Data set [2] can be described thus: T1/2 Human Liver Microsomes. The class given is in vitro ADME. The source says: Some non-limiting illustrative examples are presented below in Table 3-1.
In general terms: Liver microsomes are vesicles of endoplasmic reticulum, rich in cytochrome P450 enzymes.

The subject of data set [3] is Connective Tissue Growth Factor (CTGF) gene expression. As to the kind of experiment: Real time quantitative PCR in TGFβ-stimulated human hepatic stellate cells (LX2) to detect CTGF gene expression. The class given is cell-based. To be noted: CTGF mRNA in TGFβ-stimulated LX2 cells vs vehicle control; for inhibition at 5 µM: LX-2, 5 μM; for inhibition at 1 µM: LX-2, 1 μM; for inhibition at 10 µM: LX-2, 10 μM. Here is the method: Real Time Quantitative Polymerase Chain Reaction in Human Hepatic Stellate Cells (LX2) to Detect Connective Tissue Growth Factor (CTGF) Gene Expression The hepatic stellate cell line, LX2 was maintained in DMEM (LifeTechnologies) with 2% heat-inactivated FBS, 100U penicillin (LifeTechnologies), 0.1 mg/mL streptomycin (LifeTechnologies), and 2 mM L-glutamine (LifeTechnologies) at 37° C. with 5% CO2. Cells were seeded into 6-well plates (200,000 cells per well, 2 mLs media) and grown overnight. The cells were changed to 2 mLs 0.5% FBS media for 24 hours prior to treatment. Treatments were added in 2 mLs fresh 0.5% FBS media (vehicle control, long/mL TGFβ alone (R&D Systems), 10 ng/mL TGFβ+inhibitors) and incubated for 24 hours. […] RNA was extracted using Qiagen RNeasy kit (cat #74104), according to manufacturer's instructions. RNA (1 μg) was used to generate cDNA using the Qiagen Quantitect Reverse Transcription Kit (cat #205311), and stored at -20° C. cDNA was diluted (1:25 final) and combined with Sybr Green (Qiagen cat #204143), forward and reverse primers (50 ng each) and run on Real Time PCR Thermocycler machine (RG-6000, Corbett) with the following PCR conditions: Hold 1: 50° C. for 2 min; Hold 2: 95° C. for 15 min; Cycling: 45 cycles of: 95° C. for 30 sec, 58° C. for 21 sec, 72° C. for 15 sec, Hold 3: 72° C. for 30 sec, Melt: 72° C. to 99° C. GAPDH primers (Forward: [NT]; Reverse: [NT] primers (Forward: [NT]; Reverse: [NT] primers available from Origene, cat #HP205671)].

Data set [4] concerns TGF-β1-mediated αSMA expression. As to the kind of experiment: Fibroblast-to-Myofibroblast Transition (FMT) in human lung cells derived from IPF patient donors. Type of data set: cell-based. Conditions: primary human bronchial fibroblasts from IPF donors; 8 concentrations up to 10 μM; FIG. 2. As to the method:
Fibroblast-to-Myofibroblast Transition (FMT) in Human Lung Cells Derived from Idiopathic Pulmonary Fibrosis (IPF) Patient Donors
Lung-derived primary human bronchial fibroblasts (from IPF donors) were seeded at 3,000 cells per well in 96-well plates, and were grown over 5 days prior to treatment with the desired compounds (cell medium was refreshed at 48 h). Cells were then treated with 8 different concentrations of Compound 8 or 46, in semi-log dilutions starting from the top dosage of 10 μM (vehicle control: 0.1% DMSO; positive control: SB525334 and nintendanib). 1-hour post compound addition, the cells were stimulated with the addition of 1.25 ng/mL TGF-β1, and incubated for 72 hours. Cells were then fixed with 4% formaldehyde, then stained using […] and imaged via high-content analysis. The assay was conducted in biological duplicates. This in vitro FMT assay results were provided by Charles River Laboratories through a service agreement.

The mark [5] stands for this setting: Table 3-1, comparison of W ring with and without nitrogen, read-out: Des1 IC50.
Where [6] appears, read: intact Jurkat cells, given as concentration range, or <X / >X if measured at one concentration X only, read-out: Des1 (h) Jurkat IC50.

With `N=C(NO)c1ccc(Nc2ncc(-c3ccc(C(F)(F)F)cc3)o2)cn1` [drawing 414], the 50% inhibitory concentration (IC50) in data set [1] (setting [5]) lay within 100 to 200 nM. For the same compound, the half-life in data set [2] was 1.5 to 1.67 h.

Compound `N=C(NO)c1ccc(Nc2ncc(-c3ccc(C(F)(F)F)cc3)o2)cn1` [Example 8, 5-((5-[4-(Trifluoromethyl)phenyl]-1,3-oxazol-2-yl)amino)-N-hydroxy-pyridine-2-carboximidamide] gave an inhibition at 5 µM in data set [3] of over 90%. For the same compound, in data set [1] (setting [6]), the IC50 fell in the range of 100 to 1000 nM. In addition, the “inhibition of TGF-β1-mediated αSMA expression in IPF donors” value in data set [4] is given as “concentration-dependent inhibition”.

For the compound `N/C(=N\O)c1ccc(Nc2ncn(-c3ccc(C(F)(F)F)cc3)n2)cn1` [drawing 416], the IC50 in data set [1] (setting [5]) lay within 70 to 80 nM. For the same compound, in data set [2], the half-life lay in the range of 2.83 to 3 h.

For the compound `N=C(NO)c1ccc(Nc2ncc(-c3ccc(C(F)(F)F)cc3)o2)cc1`, the IC50 in data set [1] (setting [5]) lay in the range of 800 to 1000 nM. This compound also came in with a half-life in data set [2] of 0.5 to 0.667 h.

In data set [3], `Cn1nc(Nc2ccc(/C(N)=N/O)nc2)cc1-c1ccc(C(F)(F)F)cn1` [Compound 109, N′-Hydroxy-5-((1-methyl-5-(5-(trifluoromethyl)pyridin-2-yl)-1H-pyrazol-3-yl)amino)picolinimidamide] displayed an inhibition at 5 µM of over 90%. Besides, the IC50 in data set [1] (setting [6]) is under 1000 nM.

In data set [3], `O=C(NCC(O)CO)c1ccc(Nc2ncc(-c3ccc(Cl)cn3)o2)cn1` (racemic) [Compound 116, rac-5-((5-(5-Chloropyridin-2-yl)oxazol-2-yl)amino)-N-(2,3-dihydroxypropyl)picolinamide hydrochloride] yielded an inhibition at 5 µM of 70 to 80%. In addition, the IC50 in data set [1] (setting [6]) was under 1000 nM.

As to `O=c1cc(Nc2ncc(-c3ccc(C(F)(F)F)cc3)o2)ccn1O` [Example 23, 1-(Hydroxy)-4-((5-(4-(trifluoromethyl)phenyl)oxazol-2-yl)amino)pyridin-2(1H)-one], in data set [3], the inhibition at 1 µM is 30 to 40% and the inhibition at 10 µM was over 90%. In data set [1] (setting [6]), the concentration for half-maximal inhibition (IC50) fell in the range of 1 to 10 nM.

`N/C(=N\O)c1cnc(Nc2ccn(-c3ccc(C(F)(F)F)cn3)n2)cn1` [Compound 112, N′-Hydroxy-5-((1-(5-(trifluoromethyl)pyridin-2-yl)-1H-pyrazol-3-yl)amino)pyrazine-2-carboximidamide] showed an inhibition at 1 µM in data set [3] of over 90%. Further, the half-maximal inhibitory concentration (IC50) in data set [1] (setting [6]) is under 1000 nM.

In data set [3], `N/C(=N\O)c1ccc(Nc2ccn(-c3ccc(C(F)(F)F)cc3)n2)cn1` [Example 74, N′-Hydroxy-5-((1-(4-(trifluoromethyl)phenyl)-1H-pyrazol-3-yl)amino)picolinimidamide] showed an inhibition at 5 µM of 80 to 90%. Besides, the concentration for half-maximal inhibition (IC50) in data set [1] (setting [6]) was under 1000 nM.

`N/C(=N\O)c1ccc(Nc2ncc(-c3ccc(OC(F)(F)F)cn3)o2)cn1` [Compound 99, N′-Hydroxy-5-((5-(5-(trifluoromethoxy)pyridin-2-yl)oxazol-2-yl)amino)picolinimidamide]: in data set [3], the inhibition at 1 µM was in the range of 1 to 10% and the inhibition at 10 µM was in the range of 70 to 80%. The compound further displayed an inhibition at 1 µM in data set [1] (Jurkat cells, 1 μM) of 47%. For the same compound, the IC50 in data set [1] (setting [6]) is over 1000 nM.

As to `O=C(NCC(O)CO)c1ccc(Nc2ncc(-c3ccc(C(F)(F)F)cc3)o2)cn1` (stereo not shown), the IC50 in data set [1] (setting [5]) is 1 to 10 nM. For the same compound, the half-life in data set [2] lay in the range of 3.5 to 3.67 h.

In turn, `N=C(NO)c1ccc(Nc2ncc(-c3ccc(C(F)(F)F)cn3)o2)cn1` [Example 46, N′-hydroxy-5-((5-(5-(trifluoromethyl)pyridin-2-yl)oxazol-2-yl)amino)-picolinimidamide] showed an inhibition at 5 µM in data set [3] of over 90%. For the same compound, in data set [1] (setting [6]), the IC50 lay in the range of 100 to 1000 nM. For the same compound, in data set [4], the “inhibition of TGF-β1-mediated αSMA expression in IPF donors” value is reported as “concentration-dependent inhibition”.

In data set [3], `Oc1cnc(Nc2ncc(-c3ccc(C(F)(F)F)cc3)o2)cc1O` [Example 29, 6-((5-(4-(Trifluoromethyl)phenyl)oxazol-2-yl)amino)pyridine-3,4-diol] showed an inhibition at 1 µM of over 90% and an inhibition at 10 µM of over 90%. Besides, the concentration for half-maximal inhibition (IC50) in data set [1] (setting [6]) was under 1000 nM.

On to `N/C(=N\O)c1ccc(Nc2ncc(-c3ccc(C(F)(F)F)cc3)o2)nn1` [drawing 418], for which the IC50 in data set [1] (setting [5]) lay within 1 to 10 nM. The same compound gave a half-life in data set [2] of 2.5 to 2.83 h.

Consider `N/C(=N/O)c1ccc(Nc2cn(-c3ccc(C(F)(F)F)cn3)nn2)cn1` [Compound 115, N′-Hydroxy-5-((1-(5-(trifluoromethyl)pyridin-2-yl)-1H-1,2,3-triazol-4-yl)amino)picolinimidamide], for which the inhibition at 5 µM in data set [3] was over 90%. Also, in data set [1] (setting [6]), the IC50 is under 1000 nM.

Turning to `N/C(=N/O)c1cnc(Nc2ncc(-c3ccc(Cl)cn3)o2)cn1` [Compound 102, 5-((5-(5-Chloropyridin-2-yl)oxazol-2-yl)amino)-N′-hydroxypyrazine-2-carboximidamide], the inhibition at 5 µM in data set [3] was in the range of 70 to 80%. In addition, the IC50 in data set [1] (setting [6]) is under 1000 nM.

As to `N/C(=N\O)c1cnc(Nc2ncc(-c3ccc(C(F)(F)F)cn3)o2)cn1` [Example 57, N′-Hydroxy-5-((5-(5-(trifluoromethyl)pyridin-2-yl)oxazol-2-yl)amino)pyrazine-2-carboximidamide], in data set [3], the inhibition at 1 µM was 1 to 10% and the inhibition at 10 µM lay within 50 to 60%. The IC50 in data set [1] (setting [6]) is under 1000 nM.

For `N=C(NO)c1ccc(Nc2ncc(-c3ccc(C(F)(F)F)cn3)o2)cn1` [drawing 417], the concentration for half-maximal inhibition (IC50) in data set [1] (setting [5]) lay in the range of 400 to 500 nM. For the same compound, in data set [2], the half-life is 3.17 to 3.33 h.

A word on the IC50: it is the concentration that inhibits the measured activity by half. What is called half-life is the time needed for the level to fall by half in the phase considered. Read a high half-life as slow loss. In general, inhibition refers to the percentage by which the read-out fell short of the control. Read a low inhibition as a weak effect.
